Data published in patent US9493466B2, “Treatment of cancer with TOR kinase inhibitors” (Signal Pharmaceuticals, LLC, priority 2011, dated 2016).
Where “and” joins values, the source holds several entries; their conditions need not be identical. Equal values may be shown once.

Legend:
Test in all cases: Cell viability assay for NSCLC lines
Format in all cases: cell-based, human
NCI-H460 = conditions: NCI-H460, 3 days
Procedure: (§1) Cell Viability Assay for NSCLC Lines. Cell viability was assessed using the Cell Titer-Glo Luminescent Cell Viability from Promega. The assay is a homogenous method of determining the number of viable cells in culture based on quantitation of the adenosine triphosphate (ATP) present, an indicator of metabolically active cells. The homogenous assay procedure involves adding the single reagent (CellTiter-Glo Reagent) directly to cells cultured in serum-supplemented medium. Cells were plated into a 96-well flat bottom plate (Costar Catalog Number 33595) at densities that were previously optimized for each cell line. The cells were incubated overnight in 5% CO2 at 37° C. The following day, compound dilutions were prepared and all concentrations were assayed in triplicate. The cells were incubated with Compound 1 (0.03 μM, 0.1 μM, 0.3 μM, 1 μM, 3 μM, 10 μM and 30 μM for NSCLC cells) in 5% CO2 at 37° C. for 3 days. After a 3-day incubation period, 100 μL of CellTiter-Glo reagent was added to each well for 2 minutes with shaking and further incubated for 10 minutes (no shaking) at room temperature to stabilize the signal. The luminescence was measured on the VICTOR X2 multilabel plate reader. The percent growth inhibition was calculated using the DMSO control in the same plate (no compound) response as 100% cell growth. The average values from triplicates were plotted to obtain IC50 values using software XLfit from IDBS. The formula used for determining IC50 in XLfit was model number 205, which utilizes a 4 Parameter Logistic Model or Sigmoidal Dose-Response Model to calculate the IC50 values. All IC50 values are reported as an average from either two independent experiments or a single experiment.

NCI-H647 = conditions: NCI-H647, 3 days
Procedure: as §1

NCI-H2110 = conditions: NCI-H2110, 3 days
Procedure: as §1

NCI-H2009 = conditions: NCI-H2009, 3 days
Procedure: as §1

NCI-H1734 = conditions: NCI-H1734, 3 days
Procedure: as §1

NCI-H23 = conditions: NCI-H23, 3 days
Procedure: as §1

NCI-H441 = conditions: NCI-H441, 3 days
Procedure: as §1

NCI-H1563 = conditions: NCI-H1563, 3 days
Procedure: as §1

NCI-H1975 = conditions: NCI-H1975, 3 days
Procedure: as §1

NCI-H226 = conditions: NCI-H226, 3 days
Procedure: as §1

NCI-H2228 = conditions: NCI-H2228, 3 days
Procedure: as §1

NCI-H1703 = conditions: NCI-H1703, 3 days
Procedure: as §1

NCI-H2030 = conditions: NCI-H2030, 3 days
Procedure: as §1

NCI-H1437 = conditions: NCI-H1437, 3 days
Procedure: as §1

NCI-H1650 = conditions: NCI-H1650, 3 days
Procedure: as §1

NCI-H2291 = conditions: NCI-H2291, 3 days
Procedure: as §1

NCI-H520 = conditions: NCI-H520, 3 days
Procedure: as §1

NCI-H358 = conditions: NCI-H358, 3 days
Procedure: as §1

NCI-H650 = conditions: NCI-H650, 3 days
Procedure: as §1

NCI-H2122 = conditions: NCI-H2122, 3 days
Procedure: as §1

NCI-H1838 = conditions: NCI-H1838, 3 days
Procedure: as §1

NCI-H2444 = conditions: NCI-H2444, 3 days
Procedure: as §1

NCI-H838 = conditions: NCI-H838, 3 days
Procedure: as §1

NCI-H1944 = conditions: NCI-H1944, 3 days
Procedure: as §1

HOP92 = conditions: HOP92, 3 days
Procedure: as §1

NCI-H1568 = conditions: NCI-H1568, 3 days
Procedure: as §1

NCI-H1693 = conditions: NCI-H1693, 3 days
Procedure: as §1

NCI-H1395 = conditions: NCI-H1395, 3 days
Procedure: as §1

NCI-H596 = conditions: NCI-H596, 3 days
Procedure: as §1

NCI-H1299 = conditions: NCI-H1299, 3 days
Procedure: as §1

NCI-H727 = conditions: NCI-H727, 3 days
Procedure: as §1

SK-LU-1 = conditions: SK-LU-1, 3 days
Procedure: as §1

Calu-6 = conditions: Calu-6, 3 days
Procedure: as §1

NCI-H28 = conditions: NCI-H28, 3 days
Procedure: as §1

Calu-3 = conditions: Calu-3, 3 days
Procedure: as §1

CO[C@H]1CC[C@H](N2C(=O)CNc3ncc(-c4ccc(C(C)(C)O)nc4)nc32)CC1 [Compound 1, 7-(6-(2-hydroxypropan-2-yl)pyridin-3-yl)-1-((1r,4r)-4-methoxycyclohexyl)-3,4-dihydropyrazino-[2,3-b]pyrazin-2(1H)-one]
IC50 (NCI-H460): 370 nM
IC50 (NCI-H647): 1360 nM
IC50 (NCI-H2110): 456 nM
IC50 (NCI-H2009): 26000 nM
IC50 (NCI-H1734): 1550 nM
IC50 (NCI-H23): 2210 nM
IC50 (NCI-H441): > 30000 nM
IC50 (NCI-H1563): > 30000 nM
IC50 (NCI-H1975): 960 nM
IC50 (NCI-H226): 1750 nM
IC50 (NCI-H2228): 264 nM
IC50 (NCI-H1703): 920 nM
IC50 (NCI-H2030): 2230 nM
IC50 (NCI-H1437): 975 nM
IC50 (NCI-H1650): > 30000 nM
IC50 (NCI-H2291): > 30000 nM
IC50 (NCI-H520): 499 nM and 500 nM
IC50 (NCI-H358): 1420 nM
IC50 (NCI-H650): > 30000 nM
IC50 (NCI-H2122): 900 nM
IC50 (NCI-H1838): > 30000 nM
IC50 (NCI-H2444): 778 nM
IC50 (NCI-H838): 390 nM
IC50 (NCI-H1944): 550 nM
IC50 (HOP92): > 30000 nM
IC50 (NCI-H1568): 226 nM
IC50 (NCI-H1693): 1580 nM
IC50 (NCI-H1395): 600 nM
IC50 (NCI-H596): 2200 nM
IC50 (NCI-H1299): 1230 nM
IC50 (NCI-H727): 288 nM
IC50 (SK-LU-1): 1440 nM
IC50 (Calu-6): 4520 nM
IC50 (NCI-H28): > 30000 nM
IC50 (Calu-3): 302 nM
